Test results as given in patent publication US20110136792A1, “NOVEL CARBOXYLIC ACID ANALOGS AS GLYCOGEN SYNTHASE ACTIVATORS” (priority 2009, published 2011).

Test system: glycogen synthase
Test: Glycogen Synthase (GS) Assay
Type: biochemical
Conditions: coupled pyruvate kinase/lactate dehydrogenase assay, absorbance at 340 nm; for EC50: compound concentration needed to give 50% maximum activation; for GS SC200: compound concentration needed to stimulate 200% of the enzyme activity
Protocol: The following tests were carried out in order to determine the activity of the compounds of formula (I).
Twelve μL per well of substrate solution containing glycogen (4.32 mg/ml), 2.67 mM UDP-glucose, 21.6 mM phospho(enol)pyruvate and 2.7 mM NADH in 30 mM glycylglycine, pH 7.3 buffer was added into a polystyrene 384-well assay plate (BD Biosciences).
Compound solutions (8 μL/well) at various concentrations (0-300 μM) were added to the assay plate (columns 5-24). Compound solution contains 30 mM glycylglycine, pH 7.3, 40 mM KCl, 20 mM MgCl2, 9.2% DMSO, with (columns 15-24) or without (columns 5-14) 20 mM glucose 6-phosphate.
Enzyme solution (12 μL/well) containing glycogen synthase (16.88 μg/ml), pyruvate kinase (0.27 mg/ml), lactate dehydrogenase (0.27 mg/ml) in 50 mM Tris-HCl, pH 8.0, 27 mM DTT and bovine serum albumin (BSA, 0.2 mg/ml) was added to the assay plate (columns 3-24). As a blank control, enzyme solution without glycogen synthase was added into the top half wells of columns 1-2. To the bottom half wells of columns 1-2 were added a known activator, glucose 6-phosphate (at final concentration 5 mM) in addition to the enzyme solution. The reaction mixture was incubated at room temperature. The assay plate was then read for absorbance at 340 nm on an Envision reader every 3 minutes up to a total of 15 minutes.
The enzyme activity (with or without compound) was calculated by the reaction rate and represented by the optical density change (δOD) per minute. Percent stimulation of glycogen synthase activity by a compound at various concentrations was calculated by the following formula: […]
Where Rs is the reaction rate of the enzyme in the presence of compound and Rt is the reaction rate of the enzyme in the absence of compound.
SC200 is defined as the compound concentration that is needed to stimulate 200% of the enzyme activity. EC50 is defined as the compound concentration that is needed to give 50% maximum activation.
Compounds from Examples 1 through Example 64 were assayed according to assay procedures described above and the result is listed in Table 1 below: […]

SMILES	EC50 [nM]	GS SC200 [µM]
CCS(=O)(=O)N(CC(=O)O)Cc1cccc(COc2ccc(-c3cc(F)c(F)cc3F)cc2)c1 [Example 18, {Ethanesulfonyl-[3-(2′,4′,5′-trifluoro-biphenyl-4-yloxymethyl)-benzyl]-amino}-acetic acid]	160	0.07
O=C(O)CN(Cc1cccc(COc2ccc(-c3ccc(F)cc3F)cc2)c1)C(=O)c1cccnc1 [Example 15, [[3-(2′,4′-Difluoro-biphenyl-4-yloxymethyl)-benzyl]-(pyridine-3-carbonyl)-amino]-acetic acid]	1430	0.15
COc1cc(F)c(F)cc1-c1ccc(OCc2cccc(CN(CC(=O)O)C(=O)OC(C)C)c2)cc1 [Example 6, {[3-(4′,5′-Difluoro-2′-methoxy-biphenyl-4-yloxymethyl)-benzyl]-isopropoxycarbonyl-amino}-acetic acid]	470	0.03
COc1cc(F)c(F)cc1-c1ccc(OCc2cccc(CN(CC(=O)O)S(=O)(=O)C3CC3)c2)cc1 [Example 9, {Cyclopropanesulfonyl-[3-(4′,5′-difluoro-2′-methoxy-biphenyl-4-yloxymethyl)-benzyl]-amino}-acetic acid]	520	0.06
CCS(=O)(=O)N(CC(=O)O)Cc1cccc(COc2ccc(-c3cc(F)c(F)cc3OC)cc2)c1 [Example 7, {[3-(4′,5′-Difluoro-2′-methoxy-biphenyl-4-yloxymethyl)-benzyl]-ethanesulfonyl-amino}-acetic acid]	310	0.04
O=C(O)[C@H]1CCS(=O)(=O)N1Cc1csc(COc2ccc(-c3cc(F)c(F)cc3F)cc2)n1 [Example 59, (R)-1,1-Dioxo-2-[2-(2′,4′,5′-trifluoro-biphenyl-4-yloxymethyl)-thiazol-4-ylmethyl]-1lambda*V-isothiazolidine-3-carboxylic acid]	16600	6.06
COc1cc(F)c(F)cc1-c1ccc(OCc2cccc(CN(CC(=O)O)Cc3ccccc3)c2)cc1 [Example 35, {Benzyl-[3-(4′,5′-difluoro-2′-methoxy-biphenyl-4-yloxymethyl)-benzyl]-amino}-acetic acid]	1460	0.46
COc1cc(F)c(F)cc1-c1ccc(OCc2cccc(CN(CC(=O)O)C(C)=O)c2)cc1 [Example 21, {Acetyl-[3-(4′,5′-difluoro-2′-methoxy-biphenyl-4-yloxymethyl)-benzyl]-amino}-acetic acid]	430	0.16
O=C(O)C1CCS(=O)(=O)N1Cc1cc(COc2ccc(-c3ccc(F)cc3F)cc2)ccc1F (centres unmarked) [Example 42, 2-[5-(2′,4′-Difluoro-biphenyl-4-yloxymethyl)-2-fluoro-benzyl]-1,1-dioxo-1lambda*6*-isothiazolidine-3-carboxylic acid]	180	0.06
O=C(O)[C@@H]1CCCS(=O)(=O)N1Cc1cccc(COc2ccc(-c3cc(F)c(F)cc3F)cc2)c1 [Example 58, (S)-1,1-Dioxo-2-[3-(2′,4′,5′-trifluoro-biphenyl-4-yloxymethyl)-benzyl]-1lambda*6*-[1,2]thiazinane-3-carboxylic acid]	60	0.04
O=C(O)[C@H]1CCS(=O)(=O)N1Cc1cccc(COc2ccc(-c3cc(F)c(F)cc3F)cc2)c1 [Example 47, (R)-1,1-Dioxo-2-[3-(2′,4′,5′-trifluoro-biphenyl-4-yloxymethyl)-benzyl]-1lambda*6*-isothiazolidine-3-carboxylic acid]	1820	0.62
CCOC(=O)N(CC(=O)O)Cc1cccc(COc2ccc(-c3cc(F)c(F)cc3OC)cc2)c1 [Example 20, {[3-(4′,5′-Difluoro-2′-methoxy-biphenyl-4-yloxymethyl)-benzyl]-ethoxycarbonyl-amino}-acetic acid]	5240	0.50
COc1cc(F)c(F)cc1-c1ccc(OCc2cccc(CN3[C@H](C(=O)O)CCS3(=O)=O)c2)cc1 [Example 45, (S)-2-[3-(4′,5′-Difluoro-2′-methoxy-biphenyl-4-yloxymethyl)-benzyl]-1,1-dioxo-1lambda*6*-isothiazolidine-3-carboxylic acid]	120	0.02
COc1cc(F)c(F)cc1-c1ccc(OCc2cccc(CN(CC(=O)O)C(=O)C(C)(C)C)c2)cc1 [Example 1, [[3-(4′,5′-Difluoro-2′-methoxy-biphenyl-4-yloxymethyl)-benzyl]-(2,2-dimethyl-propionyl)-amino]-acetic acid]	1340	0.21
O=C(O)[C@@H]1CCS(=O)(=O)N1Cc1csc(COc2ccc(-c3cc(F)c(F)cc3F)cc2)n1 [Example 60, (S)-1,1-Dioxo-2-[2-(2′,4′,5′-trifluoro-biphenyl-4-yloxymethyl)-thiazol-4-ylmethyl]-1lambda*6*-isothiazolidine-3-carboxylic acid]	2190	1.74
COc1cc(F)c(F)cc1-c1ccc(OCc2cccc(CN(CC(=O)O)S(=O)(=O)c3ccccc3)c2)cc1 [Example 8, {Benzenesulfonyl-[3-(4′,5′-difluoro-2′-methoxy-biphenyl-4-yloxymethyl)-benzyl]-amino}-acetic acid]	910	0.17
COc1cc(F)c(F)cc1-c1ccc(OCc2cccc(CN(CC(=O)O)C(=O)C3CCOC3)c2)cc1 (centres unmarked) [Example 34, [[3-(4′,5′-Difluoro-2′-methoxy-biphenyl-4-yloxymethyl)-benzyl]-(tetrahydro-furan-3-carbonyl)-amino]-acetic acid]	280	0.04
CC(C)(C)C(=O)N(CC(=O)O)Cc1cccc(COc2ccc(-c3ccc(F)cc3F)cc2)c1 [Example 11, [[3-(2′,4′-Difluoro-biphenyl-4-yloxymethyl)-benzyl]-(2,2-dimethyl-propionyl)-amino]-acetic acid]	3670	0.97
Cc1cc(F)c(F)cc1-c1ccc(OCc2cccc(CN3C(C(=O)O)CCS3(=O)=O)c2)cc1 (racemic) [Example 39, 2-[3-(4′,5′-Difluoro-2′-methyl-biphenyl-4-yloxymethyl)-benzyl]-1,1-dioxo-1lambda*6*-isothiazolidine-3-carboxylic acid]	180	0.03
O=C(O)CN(Cc1cccc(COc2ccc(-c3ccc(F)cc3F)cc2)c1)C(=O)N1CCOCC1 [Example 13, [[3-(2′,4′-Difluoro-biphenyl-4-yloxymethyl)-benzyl]-(morpholine-4-carbonyl)-amino]-acetic acid]	930	0.10
COc1cc(F)c(F)cc1-c1ccc(OCc2cccc(CN3C(=O)CC[C@H]3C(=O)O)c2)cc1 [Example 52, (S)-1-[3-(4′,5′-Difluoro-2′-methoxy-biphenyl-4-yloxymethyl)-benzyl]-5-oxo-pyrrolidine-2-carboxylic acid]	120	0.02
COc1cc(F)c(F)cc1-c1ccc(OCc2nc(CN3[C@H](C(=O)O)CCS3(=O)=O)cs2)cc1 [Example 62, (S)-2-[2-(4′,5′-Difluoro-2′-methoxy-biphenyl-4-yloxymethyl)-thiazol-4-ylmethyl]-1,1-dioxo-1lambda*6*-isothiazolidine-3-carboxylic acid]	430	0.26
O=C(O)C(F)(F)F.O=C(O)[C@@H]1CCCN1Cc1cccc(COc2ccc(-c3ccc(F)cc3F)cc2)c1 [Example 54, (S)-1-[3-(2′,4′-Difluoro-biphenyl-4-yloxymethyl)-benzyl]-pyrrolidine-2-carboxylic acid; trifluoro-acetic acid salt]	3710	0.90
O=C(O)[C@H]1CCS(=O)(=O)N1Cc1cccc(COc2ccc(-c3cc(F)c(F)cc3Cl)cc2)c1 [Example 50, (R)-2-[3-(2′-Chloro-4′,5′-difluoro-biphenyl-4-yloxymethyl)-benzyl]-1,1-dioxo-1lambda*6*-isothiazolidine-3-carboxylic acid]	840	0.42
COc1cc(F)c(F)cc1-c1ccc(OCc2nc(CN3[C@@H](C(=O)O)CCS3(=O)=O)cs2)cc1 [Example 61, (R)-2-[2-(4′,5′-Difluoro-2′-methoxy-biphenyl-4-yloxymethyl)-thiazol-4-ylmethyl]-1,1-dioxo-1lambda*6*-isothiazolidine-3-carboxylic acid]	1170	0.78
